pIC50: −log10 of the molar value.
Target: Platelet-derived growth factor receptor beta (Homo sapiens, UniProt P09619)
Assay: PDGFR-β Tyrosine Kinase Inhibitory Action
Experimental: This DMSO solution was diluted by 8 times with an assay buffer 1 (50 mM HEPES (pH 7.0), 0.02% NaN3, 0.01% Bovine Serum Albumin, 0.1 mM orthovanadate, 1 mM Dithiothreitol, 5 mM MgCl2, and 1 mM MnCl2) and further diluted by 5 times with an assay buffer 2 (50 mM HEPES (pH 7.0), 0.02% NaN3, 0.01% Bovine Serum Albumin, 0.1 mM orthovanadate, 1 mM Dithiothreitol, 5 mM MgCl2, 1 mM MnCl2, and 40 nM Supplemented Enzymatic Buffer (cisbio)).2. Measurement of PDGFR-β Tyrosine Kinase Inhibitory ActionFor the measurement, the HTRF KinEASE-TK kit from Cisbio Bioassays SAS was used. To a 384 well plate, the test substance solution was added at 4 μL each, then 2 μL of a PDGFR-β enzyme solution (final concentration of 1 ng/μL, Carna Biosciences, Inc.) and 4 μL of a substrate solution obtained by adding 0.6 μM ATP to TK substrate-3-biotin (cisbio) were added, and the solution was allowed to react at 30° C. for 30 minutes at a final concentration of the test substance being 0.01 to 10,000 nM.Thereafter, 10 μL of a detection solution (cisbio) was added to each well and allowed to react at 30° C. for 1 hour. The fluorescence intensity was measured with a microplate reader (Spectra Max M5, Molecular device).

Sequence of Platelet-derived growth factor receptor beta (P09619 whole entry): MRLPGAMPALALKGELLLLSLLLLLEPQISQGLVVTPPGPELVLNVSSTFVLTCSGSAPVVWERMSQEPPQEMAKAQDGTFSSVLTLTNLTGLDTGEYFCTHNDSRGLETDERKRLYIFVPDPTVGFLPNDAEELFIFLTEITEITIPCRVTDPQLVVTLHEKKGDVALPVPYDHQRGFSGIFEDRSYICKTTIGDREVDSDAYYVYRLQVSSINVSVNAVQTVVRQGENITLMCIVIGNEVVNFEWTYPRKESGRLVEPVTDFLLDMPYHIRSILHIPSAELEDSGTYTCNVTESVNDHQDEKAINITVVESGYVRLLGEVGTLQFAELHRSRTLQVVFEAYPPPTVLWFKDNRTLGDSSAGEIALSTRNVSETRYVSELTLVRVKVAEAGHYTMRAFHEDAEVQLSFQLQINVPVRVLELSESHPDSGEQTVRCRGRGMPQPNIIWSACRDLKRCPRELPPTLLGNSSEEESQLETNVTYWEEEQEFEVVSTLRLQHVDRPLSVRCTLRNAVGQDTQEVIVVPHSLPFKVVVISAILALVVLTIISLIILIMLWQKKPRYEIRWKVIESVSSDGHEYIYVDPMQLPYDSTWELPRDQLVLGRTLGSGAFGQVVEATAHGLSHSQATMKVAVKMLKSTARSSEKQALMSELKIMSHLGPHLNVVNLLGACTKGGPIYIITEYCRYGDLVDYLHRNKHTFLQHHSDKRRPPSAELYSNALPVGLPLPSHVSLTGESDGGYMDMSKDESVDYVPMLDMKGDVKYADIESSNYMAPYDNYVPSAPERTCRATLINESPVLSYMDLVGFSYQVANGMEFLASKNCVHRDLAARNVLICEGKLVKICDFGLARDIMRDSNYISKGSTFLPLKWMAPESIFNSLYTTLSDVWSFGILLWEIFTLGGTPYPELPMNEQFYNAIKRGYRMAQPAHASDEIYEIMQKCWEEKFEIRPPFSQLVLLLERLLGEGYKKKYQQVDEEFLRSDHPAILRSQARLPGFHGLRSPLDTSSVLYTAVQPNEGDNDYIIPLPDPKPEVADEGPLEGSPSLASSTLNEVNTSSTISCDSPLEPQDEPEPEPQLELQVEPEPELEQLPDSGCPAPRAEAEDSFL

Compound: CC(=O)Nc1ccc(CNc2cc(C(=O)N[C@H]3CCCC[C@@H]3O)ccc2C)cn1 [US12509424, Example 116]
- pIC50: 7.18

— BindingDB's records for patent US12509424 (Nippon Shinyaku, 2025)
